Columns and labels:
Format in all cases: cell-based
MMTV-PyMT-T1 cells = test: LCI-DBP on MMTV breast cancer PDX model; conditions: MMTV-PyMT-T1 cells treated overnight, then BIM BH3 peptide 10 μM final; imaged 0-120 minutes; compared to undrugged (DMSO) cells; FIG. 3A
Experimental: The plates with cells were stained with 10 μL per well of LCI-Staining Solution for 20 minutes at 37° C. in a 3307 Steri-Cult Incubator, Class 100 HEP. An EL406™ Combination Microplate Washer Dispenser was then used to aspirate the volume in the wells to 10 μL. The plates with cells were washed three times with LCI-Wash buffer to a final residual volume of 10 μL per well using the EL406™ Combination Microplate Washer Dispenser. The plate was then placed on an ImageXpress® Micro 4 High Content Screening System with the required settings, taking an image every two minutes. After two images, 10 μL of the selected LCI-DBP BIM peptide buffer(s) were added to the wells. The plate was then imaged for at most 2 hours.
As depicted, cells are plated on collagen-coated plates and allowed to incubate for 16-24 hours in the presence of a test agent. […] After all images are acquired, image analysis software is used to quantify differences in TMRE release between drug-treated cells and vehicle-treated cells. […]
Cells were imaged by live single-cell imaging at 0 minutes, 42 minutes, 50 minutes, 66 minutes, and 120 minutes following BH3 peptide addition (FIG. 3A). Nuclear staining was detected as a blue emission from Hoechst 33342, and mitochondrial transmembrane potential staining was detected as a […] emission from TMRE.

[1] = tested on: Pancreatic 8902 (Panc8902) cell line; test: Live cell imaging dynamic BH3 profiling (LCI-DBP) on Pancreatic 8902 cell line
Experimental: Cells were imaged by live single-cell imaging at 18 minutes, 40 minutes, 48 minutes, 58 minutes, and 120 minutes following BH3 peptide addition (FIG. 2A). Nuclear staining was detected as a blue emission from Hoechst 33342, and mitochondrial transmembrane potential staining was detected as a green emission from TMRE. […]

cells of a sample = test: LCI-DBP example workflow (FIG. 1A), delta priming compared across treatments; conditions: bar graph of FIG. 1A comparing different treatments; cells not specified
Experimental: An example workflow of live cell imaging dynamic BH3 profiling (LCI-DBP) is depicted in FIG. 1A. As shown, in some embodiments, cells are plated in a well (e.g., a well of a multi-well plate). In some embodiments, the plated cells are contacted with a test agent or a control solution (e.g., a vehicle solution used with the test agent, such as water, buffer, or a solvent), and the test agent is incubated with the cells for a treatment period. In some embodiments, the treated cells are stained with desired markers for imaging (e.g., nuclear and/or mitochondrial markers). In some embodiments, the cells are then treated with a reagent for measuring MOMP, such as a potentiometric dye. In some embodiments, the stained and treated cells are then contacted with a BH3 peptide. Cells treated with BH3 peptide are imaged by live cell imaging to detect the reagent for measuring MOMP. […] In some embodiments, the loss in emission from the potentiometric dye is evaluated for cells treated with the test agent as compared with cells that were not treated with the test agent. In some embodiments, the difference in emission between treated and untreated cells is determined to obtain a parameter referred to herein as delta priming. Image analysis software, or any suitable algorithm known to one skilled in the art, may be used to determine the difference in emission, or it may be determined manually. […]

CO[C@H]1/C=C\C=C(/C)C(=O)NC2=CC(=O)C(NCCN(C)C)=C(C[C@@H](C)C[C@H](OC)[C@H](O)[C@@H](C)/C=C(\C)[C@@H]1OC(N)=O)C2=O [17-DMAG]
loss in mitochondrial potential, detected as loss in TMRE emission over time (MMTV-PyMT-T1 cells): observable accelerated loss in mitochondrial potential

Cc1c(-c2ccc(N3CCc4cccc(C(=O)Nc5nc6ccccc6s5)c4C3)nc2C(=O)O)cnn1CC12CC3CC(CC(C3)C1)C2 [A1331852]
loss in mitochondrial potential, detected as loss in TMRE emission over time ([1]; Panc8902 cells treated overnight, then BIM BH3 peptide 10 μM final, imaged 18-120 minutes, compared to undrugged (DMSO) cells, FIG. 2A): observable accelerated loss in mitochondrial potential

CC1(C)CCC(c2ccc(Cl)cc2)=C(CN2CCN(c3ccc(C(=O)NS(=O)(=O)c4ccc(N[C@H](CCN5CCOCC5)CSc5ccccc5)c(S(=O)(=O)C(F)(F)F)c4)cc3)CC2)C1 [Navitoclax]
half-time of TMRE loss in single cells (measurement of apoptotic priming) ([1]; Panc8902 cells, drug 1 μM overnight, BIM BH3 peptide 1 μM final, monitored over 120 minutes, versus DMSO, FIG. 5C): decrease in the half-time of TMRE loss | delta priming (cells of a sample): highest value for delta priming
